IC50 data for 29 compounds are collected here from ChEMBL document CHEMBL4028801, “A multifactorial approach to hepatobiliary transporter assessment enables improved therapeutic compound development” (Toxicol Sci, 2013).

One test concerns the target Bile salt export pump (Homo sapiens, UniProt O95342). Put plainly: Inhibition of human BSEP overexpressed in Sf9 cell membrane vesicles assessed as uptake of [3H]-taurocholate in presence of ATP measured after 15 to 20 mins by membrane vesicle transport assay. It counts as ADME, cell-based.
For test [1], the target named is ATP-binding cassette sub-family C member 2 (Homo sapiens, UniProt Q92887). Nature of the test: Inhibition of human MRP2 overexpressed in Sf9 cell membrane vesicles assessed as uptake of [3H]-estradiol-17beta-D-glucuronide in presence of ATP and GSH measured after 20 mins by membrane vesicle transport assay.
ATP-binding cassette sub-family C member 2, sequence (Q92887 whole entry): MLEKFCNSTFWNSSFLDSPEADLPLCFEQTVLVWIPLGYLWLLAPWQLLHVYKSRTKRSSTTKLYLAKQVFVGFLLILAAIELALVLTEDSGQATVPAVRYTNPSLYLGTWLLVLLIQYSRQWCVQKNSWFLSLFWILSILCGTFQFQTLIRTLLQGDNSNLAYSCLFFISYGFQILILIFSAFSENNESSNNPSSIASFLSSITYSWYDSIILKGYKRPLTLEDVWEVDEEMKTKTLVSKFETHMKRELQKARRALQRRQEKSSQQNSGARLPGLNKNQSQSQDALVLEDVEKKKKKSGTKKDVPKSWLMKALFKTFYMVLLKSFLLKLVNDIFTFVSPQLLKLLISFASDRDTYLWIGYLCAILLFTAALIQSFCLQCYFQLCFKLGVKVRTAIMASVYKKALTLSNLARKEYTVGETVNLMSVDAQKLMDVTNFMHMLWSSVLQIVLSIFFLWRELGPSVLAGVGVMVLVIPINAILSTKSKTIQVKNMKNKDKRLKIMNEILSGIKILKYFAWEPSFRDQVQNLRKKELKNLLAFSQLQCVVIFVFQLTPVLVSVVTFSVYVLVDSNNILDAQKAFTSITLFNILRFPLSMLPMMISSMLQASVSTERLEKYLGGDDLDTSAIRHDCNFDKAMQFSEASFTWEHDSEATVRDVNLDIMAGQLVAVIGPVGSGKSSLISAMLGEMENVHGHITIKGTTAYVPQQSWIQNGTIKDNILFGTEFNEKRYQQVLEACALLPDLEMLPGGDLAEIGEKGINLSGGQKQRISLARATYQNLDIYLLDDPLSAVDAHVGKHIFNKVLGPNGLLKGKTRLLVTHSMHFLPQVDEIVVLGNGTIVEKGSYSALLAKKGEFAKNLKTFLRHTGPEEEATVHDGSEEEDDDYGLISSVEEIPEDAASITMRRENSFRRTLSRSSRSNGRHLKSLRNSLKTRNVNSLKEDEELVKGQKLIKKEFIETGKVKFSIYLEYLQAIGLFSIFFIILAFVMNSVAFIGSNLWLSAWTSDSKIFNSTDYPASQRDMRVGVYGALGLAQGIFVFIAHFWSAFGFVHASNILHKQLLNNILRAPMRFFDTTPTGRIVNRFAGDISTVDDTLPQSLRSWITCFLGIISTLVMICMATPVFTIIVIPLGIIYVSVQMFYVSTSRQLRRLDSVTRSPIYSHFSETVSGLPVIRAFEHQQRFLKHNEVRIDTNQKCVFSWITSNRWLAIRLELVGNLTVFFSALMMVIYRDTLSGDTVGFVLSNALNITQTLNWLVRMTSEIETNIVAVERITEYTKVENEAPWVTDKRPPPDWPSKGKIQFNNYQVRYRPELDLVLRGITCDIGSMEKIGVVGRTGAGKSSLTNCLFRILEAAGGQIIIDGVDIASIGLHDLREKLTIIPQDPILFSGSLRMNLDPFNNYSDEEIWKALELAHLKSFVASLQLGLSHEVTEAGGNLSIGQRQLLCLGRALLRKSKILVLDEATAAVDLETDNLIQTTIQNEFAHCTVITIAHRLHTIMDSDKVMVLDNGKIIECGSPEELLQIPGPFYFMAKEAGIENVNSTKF
In test [2] the target is ATP-binding cassette sub-family C member 3 (Homo sapiens, UniProt O15438). Put plainly: Inhibition of human MRP3 overexpressed in Sf9 insect cell membrane vesicles assessed as uptake of [3H]-estradiol-17beta-D-glucuronide in presence of ATP and GSH measured after 10 mins by membrane vesicle transport assay. Format: ADME, cell-based.
ATP-binding cassette sub-family C member 3, sequence (O15438 whole entry): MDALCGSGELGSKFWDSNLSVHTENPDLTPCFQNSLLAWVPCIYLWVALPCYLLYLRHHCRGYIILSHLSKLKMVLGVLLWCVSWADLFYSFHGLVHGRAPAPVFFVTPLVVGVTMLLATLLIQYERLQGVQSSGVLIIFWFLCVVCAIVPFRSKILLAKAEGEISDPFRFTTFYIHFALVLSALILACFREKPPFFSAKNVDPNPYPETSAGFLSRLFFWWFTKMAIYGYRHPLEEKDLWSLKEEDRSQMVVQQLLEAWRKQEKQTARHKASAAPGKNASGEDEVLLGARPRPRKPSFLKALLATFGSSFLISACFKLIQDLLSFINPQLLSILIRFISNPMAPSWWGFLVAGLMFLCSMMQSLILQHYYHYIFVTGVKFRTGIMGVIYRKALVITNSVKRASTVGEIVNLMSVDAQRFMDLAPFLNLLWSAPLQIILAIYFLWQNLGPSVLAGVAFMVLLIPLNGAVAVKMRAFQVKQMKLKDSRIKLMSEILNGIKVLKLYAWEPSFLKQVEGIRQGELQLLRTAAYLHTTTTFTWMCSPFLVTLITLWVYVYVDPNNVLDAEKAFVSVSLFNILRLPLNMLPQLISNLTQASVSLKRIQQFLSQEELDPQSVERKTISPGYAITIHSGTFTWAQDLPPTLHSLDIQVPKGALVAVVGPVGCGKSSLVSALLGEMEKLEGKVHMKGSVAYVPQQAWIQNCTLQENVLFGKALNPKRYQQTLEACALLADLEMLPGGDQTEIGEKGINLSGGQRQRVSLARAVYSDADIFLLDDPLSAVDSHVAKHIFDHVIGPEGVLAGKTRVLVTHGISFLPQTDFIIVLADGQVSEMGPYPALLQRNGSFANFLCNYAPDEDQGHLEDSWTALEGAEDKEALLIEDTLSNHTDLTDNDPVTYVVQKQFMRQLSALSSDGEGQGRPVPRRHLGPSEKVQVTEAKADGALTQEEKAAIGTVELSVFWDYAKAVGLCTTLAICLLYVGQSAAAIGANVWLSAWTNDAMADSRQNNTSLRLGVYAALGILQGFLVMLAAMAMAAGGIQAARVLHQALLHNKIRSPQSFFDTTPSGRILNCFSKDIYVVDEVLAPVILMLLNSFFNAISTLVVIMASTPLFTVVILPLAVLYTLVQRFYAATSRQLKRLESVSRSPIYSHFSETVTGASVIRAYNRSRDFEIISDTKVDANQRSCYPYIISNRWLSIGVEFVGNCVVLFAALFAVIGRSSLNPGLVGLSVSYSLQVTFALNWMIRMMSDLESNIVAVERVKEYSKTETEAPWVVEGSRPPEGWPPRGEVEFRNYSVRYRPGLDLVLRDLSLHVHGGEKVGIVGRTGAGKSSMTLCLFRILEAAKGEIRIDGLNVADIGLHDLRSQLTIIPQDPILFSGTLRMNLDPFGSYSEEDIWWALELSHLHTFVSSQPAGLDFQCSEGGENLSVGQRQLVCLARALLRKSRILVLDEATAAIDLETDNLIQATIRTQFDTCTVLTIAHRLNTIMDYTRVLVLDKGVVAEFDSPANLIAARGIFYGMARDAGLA
Test [3] has as its target T1, ATP-binding cassette sub-family C member 4 (Homo sapiens, UniProt O15439).
T1 sequence (O15439 whole entry): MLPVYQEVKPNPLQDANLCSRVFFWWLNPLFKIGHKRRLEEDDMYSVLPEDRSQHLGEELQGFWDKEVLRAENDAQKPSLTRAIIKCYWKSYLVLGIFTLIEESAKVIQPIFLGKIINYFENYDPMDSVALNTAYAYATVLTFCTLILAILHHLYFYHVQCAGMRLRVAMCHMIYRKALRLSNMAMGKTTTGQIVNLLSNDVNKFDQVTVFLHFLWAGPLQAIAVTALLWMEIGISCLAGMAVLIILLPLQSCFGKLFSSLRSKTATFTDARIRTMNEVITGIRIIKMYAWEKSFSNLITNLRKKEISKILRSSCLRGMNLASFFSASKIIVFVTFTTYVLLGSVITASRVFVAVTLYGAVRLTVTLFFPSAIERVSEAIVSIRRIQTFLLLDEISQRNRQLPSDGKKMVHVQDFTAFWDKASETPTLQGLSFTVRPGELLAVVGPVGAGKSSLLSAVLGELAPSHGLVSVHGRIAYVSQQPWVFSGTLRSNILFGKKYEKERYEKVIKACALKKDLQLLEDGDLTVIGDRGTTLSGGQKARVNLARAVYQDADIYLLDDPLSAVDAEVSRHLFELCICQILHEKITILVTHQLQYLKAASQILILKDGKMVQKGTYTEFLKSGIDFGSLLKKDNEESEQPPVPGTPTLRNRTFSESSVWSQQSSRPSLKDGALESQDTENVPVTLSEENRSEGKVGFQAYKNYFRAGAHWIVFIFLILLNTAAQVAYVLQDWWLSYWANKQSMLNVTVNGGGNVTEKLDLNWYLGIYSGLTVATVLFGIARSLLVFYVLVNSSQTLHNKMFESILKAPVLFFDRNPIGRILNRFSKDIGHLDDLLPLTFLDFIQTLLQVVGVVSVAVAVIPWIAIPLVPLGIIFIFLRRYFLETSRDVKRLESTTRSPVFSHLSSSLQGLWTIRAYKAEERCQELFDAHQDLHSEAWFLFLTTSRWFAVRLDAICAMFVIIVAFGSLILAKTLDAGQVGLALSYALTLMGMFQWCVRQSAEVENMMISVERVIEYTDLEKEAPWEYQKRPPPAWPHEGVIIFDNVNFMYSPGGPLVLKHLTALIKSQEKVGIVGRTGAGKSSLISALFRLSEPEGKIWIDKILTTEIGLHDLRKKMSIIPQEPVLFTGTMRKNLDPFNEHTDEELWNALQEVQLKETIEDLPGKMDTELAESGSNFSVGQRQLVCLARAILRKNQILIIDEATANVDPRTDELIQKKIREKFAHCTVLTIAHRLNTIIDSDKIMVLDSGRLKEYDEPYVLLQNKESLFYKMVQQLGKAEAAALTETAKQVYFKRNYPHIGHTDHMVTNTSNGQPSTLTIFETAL
Put plainly: Inhibition of human MRP4 overexpressed in Sf9 cell membrane vesicles assessed as uptake of [3H]-estradiol-17beta-D-glucuronide in presence of ATP and GSH measured after 20 mins by membrane vesicle transport assay. It counts as ADME, cell-based.

Where a name gives a salt, the structure may show the parent alone.

In general, IC50 refers to the concentration that gives 50% inhibition.

Bile salt export pump, sequence (O95342 whole entry): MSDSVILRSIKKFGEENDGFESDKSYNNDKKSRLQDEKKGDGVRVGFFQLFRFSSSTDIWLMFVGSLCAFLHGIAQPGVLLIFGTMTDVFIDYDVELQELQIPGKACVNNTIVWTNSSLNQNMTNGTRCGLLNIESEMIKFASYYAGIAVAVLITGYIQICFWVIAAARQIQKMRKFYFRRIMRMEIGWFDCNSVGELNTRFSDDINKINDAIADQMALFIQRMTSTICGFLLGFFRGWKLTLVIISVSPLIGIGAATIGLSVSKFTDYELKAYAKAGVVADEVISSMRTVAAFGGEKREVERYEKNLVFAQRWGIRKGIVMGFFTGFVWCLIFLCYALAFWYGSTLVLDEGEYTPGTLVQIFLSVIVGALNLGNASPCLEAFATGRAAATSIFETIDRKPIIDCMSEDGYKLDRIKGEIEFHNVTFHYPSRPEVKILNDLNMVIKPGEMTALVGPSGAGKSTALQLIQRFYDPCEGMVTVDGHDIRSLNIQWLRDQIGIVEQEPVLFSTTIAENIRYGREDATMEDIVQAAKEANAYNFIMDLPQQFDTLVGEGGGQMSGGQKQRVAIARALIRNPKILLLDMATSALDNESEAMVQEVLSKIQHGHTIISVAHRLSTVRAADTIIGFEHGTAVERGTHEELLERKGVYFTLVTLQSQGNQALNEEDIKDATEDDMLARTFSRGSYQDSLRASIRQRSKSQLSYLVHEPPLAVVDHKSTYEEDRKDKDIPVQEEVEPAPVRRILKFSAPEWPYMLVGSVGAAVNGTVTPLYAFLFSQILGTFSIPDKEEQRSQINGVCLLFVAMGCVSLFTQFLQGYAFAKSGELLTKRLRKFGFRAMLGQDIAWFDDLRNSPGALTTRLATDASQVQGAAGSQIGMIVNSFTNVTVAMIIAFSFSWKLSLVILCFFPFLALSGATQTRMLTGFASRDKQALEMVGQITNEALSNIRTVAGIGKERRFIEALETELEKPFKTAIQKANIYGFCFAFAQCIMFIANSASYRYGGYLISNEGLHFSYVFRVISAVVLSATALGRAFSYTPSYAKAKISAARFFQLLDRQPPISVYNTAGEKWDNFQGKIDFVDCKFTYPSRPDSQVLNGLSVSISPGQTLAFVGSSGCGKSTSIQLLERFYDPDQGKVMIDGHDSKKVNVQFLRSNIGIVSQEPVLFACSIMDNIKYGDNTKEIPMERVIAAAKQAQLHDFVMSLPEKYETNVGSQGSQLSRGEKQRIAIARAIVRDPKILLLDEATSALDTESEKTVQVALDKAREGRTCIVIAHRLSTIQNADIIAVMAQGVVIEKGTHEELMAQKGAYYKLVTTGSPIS

For `CNNCc1ccc(C(=O)NC(C)C)cc1` [PROCARBAZINE HYDROCHLORIDE], the IC50 (at Bile salt export pump; in test [1]; in test [2]; in test [3]) was > 133 µM in each case.

As to `CCN(CC)CCNC(=O)c1cc(Cl)c(N)cc1OC` [METOCLOPRAMIDE], the IC50 (on Bile salt export pump; in test [1]; in test [2]; in test [3]) was > 133 µM in each case.

Take `CCN(CC)CCNC(=O)c1cc(S(C)(=O)=O)ccc1OC` [TIAPRIDE]: the IC50 (at Bile salt export pump; in test [1]; in test [2]; in test [3]) was > 133 µM each time.

In the case of `CC1CCN(CCCC(=O)c2ccc(F)cc2)CC1` [MELPERONE], the 50% inhibitory concentration (IC50) (at Bile salt export pump; in test [1]; in test [2]; in test [3]) was > 133 µM each time.

For the compound `CCCN(CCC)S(=O)(=O)c1ccc(C(=O)O)cc1` [PROBENECID], the IC50 (at Bile salt export pump; in test [1]; in test [2]; in test [3]) was > 133 µM in each case.

On to `CC(C)c1nc(N(C)S(C)(=O)=O)nc(-c2ccc(F)cc2)c1/C=C/[C@@H](O)C[C@@H](O)CC(=O)O` [ROSUVASTATIN CALCIUM], for which the IC50 is > 133 µM at Bile salt export pump, > 133 µM in test [1], 58.3 µM in test [2] and 26.8 µM in test [3].

With `CCCCNC(=O)NS(=O)(=O)c1ccc(C)cc1` [TOLBUTAMIDE], the IC50 (on Bile salt export pump; in test [1]; in test [2]; in test [3]) was > 133 µM throughout.

Take `C=C1CC[C@H](O)C/C1=C/C=C1\CCC[C@]2(C)[C@@H]([C@H](C)/C=C/[C@H](C)C(C)C)CC[C@@H]12` [ERGOCALCIFEROL]: the IC50 on Bile salt export pump is 75.8 µM; in test [1] it was > 133 µM; in test [2] it was > 133 µM; in test [3] it was > 133 µM.

For the compound `O=C(O)CCC/C=C\CC1C(O)CC(O)C1/C=C/C(O)COc1cccc(Cl)c1` (stereo unspecified) [CLOPROSTENOL SODIUM], the IC50 at Bile salt export pump is > 133 µM; in test [1], > 133 µM; in test [2], > 133 µM; in test [3], 1.9 µM.

For `Nc1ccn(C[C@@H](CO)OCP(=O)(O)O)c(=O)n1` [CIDOFOVIR], the IC50 (at Bile salt export pump; in test [1]; in test [2]; in test [3]) was > 133 µM in each case.

With `CC[C@]1(O)C[C@H]2CN(CCc3c([nH]c4ccccc34)[C@@](C(=O)OC)(c3cc4c(cc3OC)N(C=O)[C@H]3[C@@](O)(C(=O)OC)[C@H](OC(C)=O)[C@]5(CC)C=CCN6CC[C@]43[C@@H]65)C2)C1` [VINCRISTINE SULFATE], the IC50 (on Bile salt export pump; in test [1]; in test [2]; in test [3]) was > 133 µM throughout.

For `CC(O)(P(=O)(O)O)P(=O)(O)O` [ETIDRONATE DISODIUM], the IC50 (at Bile salt export pump; in test [1]; in test [2]; in test [3]) was > 133 µM in each case.

In the case of `Oc1c(I)cc(Cl)c2cccnc12` [CLIOQUINOL], the IC50 (at Bile salt export pump; in test [1]; in test [2]; in test [3]) was > 133 µM throughout.

Turning to `C=C[C@H]1C[N@@]2CC[C@H]1C[C@@H]2[C@@H](O)c1ccnc2ccc(OC)cc12` [QUINIDINE], the IC50 on Bile salt export pump is > 133 µM; in test [1], > 133 µM; in test [2], > 133 µM; in test [3] it was 45.8 µM.

`CC[C@@H](C(N)=O)N1CCCC1=O`: the IC50 (on Bile salt export pump; in test [1]; in test [2]; in test [3]) was > 133 µM in each case.

As for `Cc1onc(-c2ccccc2)c1-c1ccc(S(N)(=O)=O)cc1` [VALDECOXIB], the IC50 (on Bile salt export pump; in test [1]; in test [2]; in test [3]) was > 133 µM each time.

Turning to `CC(=O)NS(=O)(=O)c1ccc(N)cc1`, the IC50 (on Bile salt export pump; in test [1]; in test [2]; in test [3]) was > 133 µM in each case.

For `C=C[C@H]1C[N@@]2CC[C@H]1C[C@H]2[C@H](O)c1ccnc2ccc(OC)cc12` [QUININE], the IC50 (at Bile salt export pump; in test [1]; in test [2]; in test [3]) was > 133 µM throughout.

For `O=C1NCCN1CCN1CCC(c2cn(-c3ccc(F)cc3)c3ccc(Cl)cc23)CC1` [SERTINDOLE], the IC50 was 82.7 µM on Bile salt export pump, > 133 µM in test [1], > 133 µM in test [2] and > 133 µM in test [3].

Consider `CC(=O)CCCCn1c(=O)c2c(ncn2C)n(C)c1=O` [PENTOXIFYLLINE], for which the IC50 (at Bile salt export pump; in test [1]; in test [2]; in test [3]) was > 133 µM in each case.

`Nc1ccc(S(=O)(=O)Nc2ncccn2)cc1` [SULFADIAZINE]: the IC50 (at Bile salt export pump; in test [1]; in test [2]; in test [3]) was > 133 µM throughout.

For the compound `Cc1nnc(C(C)C)n1[C@@H]1C[C@H]2CC[C@@H](C1)N2CC[C@H](NC(=O)C1CCC(F)(F)CC1)c1ccccc1` [MARAVIROC], the IC50 is 110 µM at Bile salt export pump, > 133 µM in test [1], > 133 µM in test [2] and > 133 µM in test [3].

As for `CCN[C@H]1CN(CCCOC)S(=O)(=O)c2sc(S(N)(=O)=O)cc21` [BRINZOLAMIDE], the IC50 (on Bile salt export pump; in test [1]; in test [2]; in test [3]) was > 133 µM each time.

Take `CN(C)c1ccc(O)c2c1C[C@H]1C[C@H]3[C@H](N(C)C)C(O)=C(C(N)=O)C(=O)[C@@]3(O)C(O)=C1C2=O` [MINOCYCLINE HYDROCHLORIDE]: the IC50 (on Bile salt export pump; in test [1]; in test [2]; in test [3]) was > 133 µM in each case.

Consider `C=CC1=C(C(=O)O)N2C(=O)[C@@H](NC(=O)/C(=N\OCC(=O)O)c3csc(N)n3)[C@H]2SC1` [CEFIXIME], for which the IC50 on Bile salt export pump is > 133 µM; in test [1], 89.4 µM; in test [2], > 133 µM; in test [3] it was > 133 µM.

Take `Cc1cccn2c(=O)c(-c3nnn[nH]3)cnc12` [PEMIROLAST POTASSIUM]: the IC50 (at Bile salt export pump; in test [1]; in test [2]; in test [3]) was > 133 µM throughout.

Take `CS(=O)(=O)Nc1ccc([N+](=O)[O-])cc1Oc1ccccc1` [NIMESULIDE]: the IC50 (at Bile salt export pump; in test [1]; in test [2]; in test [3]) was > 133 µM in each case.

Turning to `C[C@]12CC[C@H](O)CC1=CC[C@@H]1[C@@H]2CC[C@]2(C)C(c3cccnc3)=CC[C@@H]12` [ABIRATERONE], the IC50 (at Bile salt export pump; in test [1]; in test [2]; in test [3]) was > 133 µM throughout.

`CN(CCCN1c2ccccc2CCc2ccccc21)CC(=O)c1ccc(Cl)cc1` [LOFEPRAMINE]: the IC50 (at Bile salt export pump; in test [1]; in test [2]; in test [3]) was > 133 µM each time.
